Reference: paper PMC9645390, “Amphiphilic stilbene derivatives attenuate the neurotoxicity of soluble Aβ42 oligomers by controlling their interactions with cell membranes” (Chemical Science, 2022)

Key:
[1] = Log D by octanol-PBS partition assay; type: physicochemical; conditions: pH 7.4, fluorescence readout
Method: In order to confirm that the compounds can also bind to native Aβ species, brain sections collected from 9-month-old 5xFAD transgenic mice have been employed in the fluorescence imaging studies. […] The brain sections were first incubated with our compounds, followed by Congo Red (CR), which is a well-established fluorescent probe that can bind to Aβ plaques.[34] The treated brain sections were then imaged using fluorescence microscope. […] Immunostaining with the CF594-conjugated HJ 3.4 antibody (CF594-HJ3.4) was also performed to confirm that these six compounds can bind to Aβ species specifically in the brain sections (Fig. 5). Moreover, the log D values of the compounds were also measured by octanol-PBS partition assays.[35] […]
The Log D value was measured following a published procedure using slight modifications.4 In general, compounds in 0.5 mL octanol was subjected to partition with 0.5 mL octanol-saturated
PBS. The whole mixture was stirred vigorously for 5 min, and centrifuged at 2,000 rpm for 5 min.
The top octanol layer was separated for later fluorescence measurement. The remaining PBS layer was partitioned with 0.5 mL PBS-saturated octanol, and the second top octanol layer was then separated after vigorous stirring and centrifuging at 2,000 rpm for another 5 min. The two octanol layers’ fluorescence spectra were recorded. The log D value was calculated by the fluorescence intensity ratio at the compounds’ emission wavelength for the above two octanol extractions. […]

[2] = molecular target: T1, Aβ42 fibrils (Homo sapiens, UniProt P05067); assay: Fluorescence saturation binding assay with Aβ42 fibrils; conditions: Aβ42 fibrils; for Kd: 10 mM PBS pH 7.4, one site-specific binding model, read-out: Kd, Fibrils; for binding ratio, Fibrils: from cross point between plateau and initial slope
T1 construct: 1 mg of commercial Aβ42 monomer powder (from GL biochem) was dissolved in 1; purchased GL biochem
Method: (§1) Fig. 3 Binding constant measurements of ZY-5-OMe (left), ZY-5-MT (middle), ZY-5-DT (right) with Aβ42 fibrils (top), and oligomers (bottom). The measurements were performed in 10 mM phosphate buffered saline (PBS), pH 7.4. The Kd curves were fitted in GraphPad Prism with one site-specific binding model. Equation: Y = Bmax × X/(Kd + X). [Aβ42 fibrils] = [Aβ42 oligomers] = 5 μM.
(§2) Preparation of the Aβ42 Fibrils and Aβ42 Oligomers
(§3) Aβ42 fibrils: 1 mg of commercial Aβ42 monomer powder (from GL biochem) was dissolved in 1
(§4) mL 1,1,1,3,3,3-hexafluoro-2-propanol (HFIP) at room temperature and incubated for 1h. The
(§5) resulting solution was divided equally into two Eppendorf tubes. The solution in each Eppendorf
(§6) tube containing 0.5 mg Aβ42 monomer was then evaporated overnight and dried by vacuum
(§7) centrifuge to generate monomeric films. 100 μM Aβ42 fibrils solution was prepared by dissolving
(§8) the 0.5 mg monomeric films in 1.1 mL PBS buffer (with final DMSO concentration less than 1%)
(§9) and stiring at 37 °C for 3 days.
(§10) Aβ42 oligomers: The 0.5 mg monomeric films were dissolved in 1.1 mL PBS buffer (with final
(§11) DMSO concentration less than 1%) and incubated at 4 °C overnight. The resulting solution was
(§12) then centrifuged at 3000 rpm for 15 mins to remove the insoluble aggregates. The clear supernatant
(§13) was then used for the following experiments. […]
(§14) In Vitro Saturation Binding Studies with Aβ42 Fibrils and Aβ42 Oligomers
(§15) To a solution of increasing concentrations of compounds, a fixed concentration of the generated
(§16) aggregated Aβ42 fibrils or Aβ42 oligomers solutions (5 to 15 μM) was added to yield a total volume
(§17) of 100 μL. Nonspecific binding was determined without compounds. The mixture was incubated
(§18) for 15 min at room temperature. All fluorescence data were obtained on a SpectraMax M2e plate
(§19) reader (Molecular Devices).

[3] = molecular target: T2, Aβ42 oligomers (Homo sapiens, UniProt P05067); assay: Fluorescence saturation binding assay with Aβ42 oligomers; conditions: for Kd / binding ratio, Oligomers: Aβ42 oligomers; for Kd: 10 mM PBS pH 7.4, one site-specific binding model; for binding ratio, Oligomers: from cross point between plateau and initial slope; for binding preference oligomers vs fibrils (from Kd values): lower Kd for Aβ oligomers than Aβ fibrils
T2 construct: 1 mg of commercial Aβ42 monomer powder (from GL biochem) was dissolved in 1; purchased GL biochem
Method: as §1, §2, §3, §4, §5, §6, §7, §8, §9, §10, §11, §12, §13, §14, §15, §16, §17, §18, §19

[4] = tested on: SH-SY5Y cells; assay: Cell toxicity studies in SH-SY5Y cells; type: cell-based, human; conditions: 10 µM
From the text: Encouraged by the ability of the developed amphiphilic compounds to attenuate the neurotoxicity of Cu–Aβ species, we sought out to study the possible molecular mechanisms for this beneficial effect. The Aβ oligomers were reported to interact with cell membranes in various ways, such as binding to receptors on cell membranes,[49,50] inserting into membranes,[51] or even showing cellular uptake via endocytosis.[52] The abnormal interactions between Aβ oligomers and neuron cells, which could disrupt the neuronal ion homeostasis and neuron cell membrane integrity, might be why Aβ oligomers are highly neurotoxic.[53–55] Moreover, molecules that can disrupt interactions between oligomers and cell membranes are promising candidates for drug development.[56,57] Thus, we proceeded to probe the interactions of the Aβ42 oligomers with SH-SY5Y cellular membranes, in the absence and presence of the compounds, via confocal microscopy. […] Moreover, a lower concentration of Aβ42 (5 μM) or Aβ42–Cu (5 μM) were chosen to avoid significant cell death (Fig. S9b ^†). Before investigating the neuroprotective effect of our compounds, we have also confirmed that Aβ aggregates interact tightly with the cell membranes, as shown via co-staining with a membrane specific dye (Fig. S10 ^†). Subsequently, SH-SY5Y cells were treated with Aβ oligomers or a combination of Aβ oligomers and compounds for 24 h, followed by the immunofluorescence staining with the CF594-labeled anti-Aβ antibody HJ 3.4 (Fig. 10) and nuclei staining, shown in the red and blue channels, respectively. Compared to the untreated group, the Aβ oligomers were found mainly bound to cell membranes. […] To understand this unusual behavior, we posited that the Aβ oligomers would start the fibrilization process when incubated in the cell media. […] Therefore, we proceeded to probe if our compounds could prevent the binding of Aβ fibrils to cell membranes. […] Given these encouraging results, we moved to study if the amphiphilic compounds can further control the interactions between Cu–Aβ species and cell membranes. Firstly, when SH-SY5Y cells were treated with Aβ monomers for 48 h, the aggregated Aβ species interacting with cell membranes were observed (Fig. 11a). […] However, these aggregates are still smaller than the insoluble fibrils (Fig. S11 ^†), indicating they are still soluble oligomeric Aβ species.
11. Cell toxicity studies in SH-SY5Y cells
Figure S9. Cell toxicity studies in SH-SY5Y cells. a) [ZY- 12-MT] = [ZY-15-OMe] = [ZY-15-MT] = [ZY-5-OMe] =
10 µM. b) Average cell numbers in presence of 5 µM Aβ42 monomer, 5 µM (Aβ42 monomer + Cu2+), 5 µM (Aβ42
monomer + Cu2+ + ZY-15-MT) and 5 µM (Aβ42 monomer + Cu2+ + ZY-15-OMe).
(1 picture or pasted object on this page, not shown here)

T1 sequence (P05067 672-713 limits assumed): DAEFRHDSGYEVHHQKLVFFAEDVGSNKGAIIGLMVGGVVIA
T2 sequence (P05067 672-713 limits assumed): as above

SMILES	logD [1]	Kd [2] [nM]	binding ratio, Fibrils [2]	Kd [3] [nM]	binding ratio, Oligomers [3]	binding preference oligomers vs fibrils (from Kd values) [3]	toxicity towards SH-SY5Y cells (in words) [4]
COc1cc(OC)cc(-c2ccc(/C=C/c3cc(CN4CCN(C)CCN(C)CC4)c(O)c(OC)c3)cc2)c1 [ZY-17-OMe]	0.732 ± 0.019	180	21.9	120	46.7	higher binding affinity to oligomers over fibrils	–
COc1cc(/C=C/c2ccc(-c3ccc(C=O)cc3)s2)cc(CN2CCN(C)CCN(C)CC2)c1O [ZY-15-OMe]	1.053 ± 0.002	1240	3.0	470	8.1	higher binding affinity to oligomers over fibrils	not toxic towards SH-SY5Y cells
COc1cc(OC)cc(-c2ccc(/C=C/c3cc(CN4CCN(C)CCN(C)CC4)c(O)c(CN4CCN(C)CCN(C)CC4)c3)cc2)c1 [ZY-17-DT]	0.606 ± 0.032	2250	1.1	1030	33.3	higher binding affinity to oligomers over fibrils	–
CN1CCN(C)CCN(Cc2cc(-c3ccc(/C=C/c4ccc(N(C)C)cc4)s3)ccc2O)CC1 [ZY-12-MT]	0.83 ± 0.035	4190	1.3	6270	1.0	–	not toxic towards SH-SY5Y cells
COc1cc(/C=C/c2ccc(-c3ccc(N(C)C)cc3)s2)cc(CN2CCN(C)CCN(C)CC2)c1O [ZY-5-OMe]	1.18 ± 0.046	680	5.6	1040	4.0	–	not toxic towards SH-SY5Y cells
CN1CCN(C)CCN(Cc2cc(/C=C/c3ccc(-c4ccc(C=O)cc4)s3)ccc2O)CC1 [ZY-15-MT]	1.11 ± 0.021	530	10.0	2030	2.5	–	not toxic towards SH-SY5Y cells
